# Data: publication PMC10298512, “Synthesis and Anticancer Evaluation of Novel 7-Aza-Coumarine-3-Carboxamides” (International Journal of Molecular Sciences, 2023)
# Like-named read-outs stand apart in the source and are kept apart here.
# Columns and labels:
# M-HeLa = assay: MTT cytotoxicity test, M-HeLa cells; format: cell-based, human; settings: 24 h incubation, tested at 1–100 µM, three independent experiments, read-out: IC50 (µM) Cancer Cell Lines M-HeLa
# HuTu 80 = assay: MTT cytotoxicity test, HuTu 80 cells; format: cell-based, human; settings: for IC50: MTT test, 24 h incubation, tested at 1–100 µM, three independent experiments, read-out: IC50 (µM) Cancer Cell Lines HuTu 80; for selectivity index, SI = IC50(Chang liver)/IC50(HuTu 80): normal Chang liver vs HuTu 80
# Chang liver = assay: MTT cytotoxicity test, normal Chang liver cells; format: cell-based, human; settings: 24 h incubation, tested at 1–100 µM, three independent experiments, read-out: IC50 (µM) Normal Cell Lines Chang Liver
Compound,melting point,"IC50 (M-HeLa; Homo sapiens, M-HeLa) [µM]","IC50 (HuTu 80; Homo sapiens, HuTu80) [µM]","IC50 (Chang liver; Homo sapiens, Chang liver) [µM]","selectivity index, SI = IC50(Chang liver)/IC50(HuTu 80) (HuTu 80)",IC50 (M-HeLa) [µM],IC50 (HuTu 80) [µM],IC50 (Chang liver) [µM]
"Cc1ncc(CO)c2cc(C(=O)O)c(=O)oc12 [3a, 5-(hydroxymethyl)-8-methyl-2-oxo-2H-pyrano[2,3-c]pyridin-7-ium-3-carboxylate]",249 to 250 °C,75.5 ± 6,57.6 ± 4.6,58 ± 4.7,–,–,–,–
"Cc1ncc(COP(=O)(O)O)c2cc(C(=O)O)c(=O)oc12 [3b, 8-methyl-2-oxo-5-((phosphonooxy)methyl)-2H-pyrano[2,3-c]pyridin-7-ium-3-carboxylate]",> 300 °C,70.6 ± 5.7,60.5 ± 5.3,70 ± 5.6,–,–,–,–
"O=c1[nH]cc(F)c(=O)[nH]1 [5-fluorouracil, reference compound]",–,62 ± 4.7,65.2 ± 5.4,86.3 ± 6.5,–,–,–,–
"Cc1ncc(CCl)c2cc(C(=O)Nc3ccccc3)c(=O)oc12 [7a, 5-(Chloromethyl)-8-methyl-2-oxo-N-phenyl-2aH-pyrano[2,3-c]pyridine-3-carboxamide]",240 °C (dec.),> 100,59.4 ± 4.8,56.6 ± 4.5,–,–,–,–
"COc1ccccc1NC(=O)c1cc2c(CCl)cnc(C)c2oc1=O [7b, 5-(Chloromethyl)-N-(2-methoxyphenyl)-8-methyl-2-oxo-2H-pyrano[2,3-c]pyridine-3-carboxamide]",214 to 215 °C,84.4 ± 5.5,55.3 ± 3.9,46 ± 3.2,–,–,–,–
"Cc1ncc(CCl)c2cc(C(=O)Nc3ccc([N+](=O)[O-])cc3Br)c(=O)oc12 [7c, N-(2-Bromo-4-nitrophenyl)-5-(chloromethyl)-8-methyl-2-oxo-2H-pyrano[2,3-c]pyridine-3-carboxamide]",240 °C (dec.),67.4 ± 4.6,43 ± 3.5,89.4 ± 6.3,–,–,–,–
"Cc1ncc(CCl)c2cc(C(=O)Nc3ccccn3)c(=O)oc12 [7d, 5-(Chloromethyl)-8-methyl-2-oxo-N-(pyridin-2-yl)-2H-pyrano[2,3-c]pyridine-3-carboxamide]",> 300 °C,84 ± 5.9,62 ± 4.3,88 ± 6.2,–,–,–,–
"Cc1ncc(CO)c2cc(C(=O)O)c(=O)oc12.NC1CCCCC1 [8b, Cyclohexanaminium 5-(hydroxymethyl)-8-methyl-2-oxo-2H-pyrano[2,3-c]pyridine-3-carboxylate]",–,–,–,–,–,70.4 ± 5.7,78.2 ± 6.3,81 ± 6.5
"Cc1ncc(CO)c2cc(C(=O)O)c(=O)oc12.Cc1ncc(CO)c2cc(C(=O)O)c(=O)oc12.Nc1cccc(N)n1 [8d, Pyridine-2,6-diaminium 5-(hydroxymethyl)-8-methyl-2-oxo-2H-pyrano[2,3-c]pyridine-3-carboxylate]",–,–,–,–,–,> 100,88.4 ± 7,64.1 ± 5.1
"Cc1ncc(COP(=O)(O)O)c2cc(C(=O)O)c(=O)oc12.Nc1ccccn1 [8e, Pyridin-2-aminium 8-methyl-2-oxo-5-((phosphonooxy)methyl)-2H-pyrano[2,3-c]pyridine-3-carboxylate]",–,–,–,–,–,99.5 ± 7.1,59 ± 4.1,78.4 ± 6.3
"COc1cccc2c1C(=O)c1c(O)c3c(c(O)c1C2=O)C[C@@](O)(C(=O)CO)C[C@@H]3O[C@H]1C[C@H](N)[C@H](O)[C@H](C)O1 [Doxorubicin, reference compound]",–,3 ± 0.2,3 ± 0.2,3 ± 0.1,1,–,–,–

# Continued, in another order:
melting point,Compound,"IC50 (M-HeLa; Homo sapiens, M-HeLa) [µM]","IC50 (HuTu 80; Homo sapiens, HuTu80) [µM]","IC50 (Chang liver; Homo sapiens, Chang liver) [µM]","selectivity index, SI = IC50(Chang liver)/IC50(HuTu 80) (HuTu 80)",IC50 (M-HeLa) [µM],IC50 (HuTu 80) [µM],IC50 (Chang liver) [µM]
> 300 °C,"Cc1ncc(CCl)c2cc(C(=O)Nc3cccnc3N)c(=O)oc12 [7e, N-(2-Aminopyridin-3-yl)-5-(chloromethyl)-8-methyl-2-oxo-2H-pyrano[2,3-c]pyridine-3-carboxamide]",54.3 ± 3.6,72 ± 5.2,55.3 ± 3.7,–,–,–,–
201 to 205 °C,"Cc1ncc(CCl)c2cc(C(=O)N(c3ccccc3)c3ccccc3)c(=O)oc12.Cl [7f, 5-(Chloromethyl)-3-(diphenylcarbamoyl)-8-methyl-2-oxo-2H-pyrano[2,3-c]pyridin-7-ium chloride]",32 ± 2.2,17.4 ± 1.3,48.4 ± 3.3,–,–,–,–
161 °C (dec.),"C#CCNC(=O)c1cc2c(CCl)cnc(C)c2oc1=O [7g, 5-(Chloromethyl)-8-methyl-2-oxo-N-(prop-2-yn-1-yl)-2H-pyrano[2,3-c]pyridine-3-carboxamide]",14.1 ± 1.2,11.2 ± 0.9,13.9 ± 0.3,–,–,–,–
> 300 °C,"Cc1ncc(CCl)c2cc(C(=O)Nc3ccc(S(N)(=O)=O)cc3)c(=O)oc12 [7h, 5-(Chloromethyl)-8-methyl-2-oxo-N-(4-sulfamoylphenyl)-2H-pyrano[2,3-c]pyridine-3-carboxamide]",14.8 ± 1.3,2.9 ± 0.2,29.8 ± 2,10,–,–,–
> 300 °C,"CC(=O)NS(=O)(=O)c1ccc(NC(=O)c2cc3c(CCl)cnc(C)c3oc2=O)cc1 [7i, N-(4-(N-Acetylsulfamoyl)phenyl)-5-(chloromethyl)-8-methyl-2-oxo-2H-pyrano[2,3-c]pyridine-3-carboxamide]",77.8 ± 5.4,31 ± 1.9,116 ± 8.1,–,–,–,–
> 300 °C,"Cc1ncc(CCl)c2cc(C(=O)Nc3ccc(S(=O)(=O)Nc4ncccn4)cc3)c(=O)oc12 [7j, 5-(Chloromethyl)-8-methyl-2-oxo-N-(4-(N-(pyrimidin-2-yl)sulfamoyl)phenyl)-2H-pyrano[2,3-c]pyridine-3-carboxamide]",73.4 ± 5.2,32 ± 2.1,73 ± 5.5,–,–,–,–
> 300 °C,"Cc1ccnc(NS(=O)(=O)c2ccc(NC(=O)c3cc4c(CCl)cnc(C)c4oc3=O)cc2)n1 [7k, 5-(Chloromethyl)-8-methyl-N-(4-(N-(4-methylpyrimidin-2-yl)sulfamoyl)phenyl)-2-oxo-2H-pyrano[2,3-c]pyridine-3-carboxamide]",47 ± 3.1,18.1 ± 1.4,61.3 ± 4.2,–,–,–,–
> 300 °C,"Cc1cc(C)nc(NS(=O)(=O)c2ccc(NC(=O)c3cc4c(CCl)cnc(C)c4oc3=O)cc2)n1 [7l, 5-(Chloromethyl)-N-(4-(N-(4,6-dimethylpyrimidin-2-yl)sulfamoyl)phenyl)-8-methyl-2-oxo-2H-pyrano[2,3-c]pyridine-3-carboxamide]",62.4 ± 4.4,52.1 ± 3.4,126 ± 8.8,–,–,–,–
240 °C (dec.),"Cc1ncc(CCl)c2cc(C(=O)NNC(=O)c3ccccc3)c(=O)oc12 [7m, N′-Benzoyl-5-(chloromethyl)-8-methyl-2-oxo-2H-pyrano[2,3-c]pyridine-3-carbohydrazide]",61.1 ± 4.2,49.7 ± 3.5,62.4 ± 4.9,–,–,–,–
> 300 °C,"Cc1ncc(CCl)c2cc(C(=O)NNC(=O)c3ccncc3)c(=O)oc12 [7n, 5-(Chloromethyl)-N′-isonicotinoyl-8-methyl-2-oxo-2H-pyrano[2,3-c]pyridine-3-carbohydrazide]",93.1 ± 6.6,61.2 ± 4.2,64.1 ± 4.8,–,–,–,–
239 to 241 °C,"Cc1ncc(CCl)c2cc(C(=O)Nc3ccccc3NC(=O)c3cc4c(CCl)cnc(C)c4oc3=O)c(=O)oc12 [7o, N,N′-(1,2-Phenylene)bis(5-(chloromethyl)-8-methyl-2-oxo-2H-pyrano[2,3-c]pyridine-3-carboxamide)]",22.5 ± 1.8,3.1 ± 0.2,11.8 ± 0.9,3.8,–,–,–
274 °C (dec.),"Cc1ncc(CCl)c2cc(C(=O)Nc3cccc(NC(=O)c4cc5c(CCl)cnc(C)c5oc4=O)c3)c(=O)oc12 [7p, N,N′-(1,3-Phenylene)bis(5-(chloromethyl)-8-methyl-2-oxo-2H-pyrano[2,3-c]pyridine-3-carboxamide)]",63 ± 4.4,81.5 ± 5.7,37 ± 2.6,–,–,–,–
> 300 °C,"Cc1ncc(CCl)c2cc(C(=O)Nc3ccc(NC(=O)c4cc5c(CCl)cnc(C)c5oc4=O)cc3)c(=O)oc12 [7q, N,N′-(1,4-Phenylene)bis(5-(chloromethyl)-8-methyl-2-oxo-2H-pyrano[2,3-c]pyridine-3-carboxamide)]",84.3 ± 5.9,95.4 ± 6.5,> 100,–,–,–,–
> 300 °C,"Cc1ncc(CCl)c2cc(C(=O)Nc3cccc(S(=O)(=O)c4cccc(NC(=O)c5cc6c(CCl)cnc(C)c6oc5=O)c4)c3)c(=O)oc12 [7s, N,N′-(Sulfonylbis(3,1-phenylene))bis(5-(chloromethyl)-8-methyl-2-oxo-2H-pyrano[2,3-c]pyridine-3-carboxamide)]",80 ± 5.7,13.8 ± 1.1,125 ± 11,9,–,–,–
219 to 224 °C,"Cc1ncc(CO)c2c1OC1=C(C(=O)CC(C)(C)C1)C2C1=C(O)CC(C)(C)CC1=O (stereo not shown) [compound 4, 5-(2-hydroxy-4,4-dimethyl-6-oxocyclohex-1-en-1-yl)-4-(hydroxymethyl)-1,8,8-trimethyl-5,7,8,9-tetrahydro-6H-chromeno[2,3-c]pyridin-6-one]",–,–,–,–,–,–,–
